Non-standard residues stand in square brackets, D forms with d. No end group written: not given here.
Columns and labels:
[1] = tested on: 3T3-L1 mouse adipocytes; experiment: Free fatty acid levels in cultured 3T3-L1 mouse adipocytes and insulin dependence (Example 17); format: cell-based; conditions: isoproterenol 0.1 nM; for Free Fatty Acid Levels, Percent of Isoproterenol Control Activity No Insulin: peptide 10 μM alone, relative to isoproterenol treated cells; for Free Fatty Acid Levels, Percent of Isoproterenol Control Activity With Insulin: peptide 10 μM with 0.25 nM insulin, relative to 0.25 nM insulin treated cells
Procedure: The effect of the peptides on fatty acid metabolism can be assessed using an assay to monitor free fatty acid levels produced by cultured cells such as mouse adipocytes. […] Following 3 h incubation, conditioned medium from each well was transferred to a fresh 96-well plate. […] Absorbance values were expressed as percent control activity relative to 0.1 nM isoproterenol treated cells (no insulin) for 10 μM peptide alone or 0.25 nM insulin treated cells (with insulin) for 10 μM peptide in presence of 0.25 nM insulin. […] Data are presented as averages values from 2-3 independent experiments with each data point performed in triplicate.

[2] = tested on: H4-IIE cells; experiment: Glucose production in cultured H4-IIE cells and insulin dependence; format: cell-based, rat; conditions: 24 h; for Glucose Production, Percent of Control Activity No Insulin: peptide 10 μM alone, relative to untreated cells; for Glucose Production, Percent of Control Activity With Insulin: peptide 10 μM with 800 μM insulin, relative to insulin treated cells
Procedure: The effect of the peptides on glucose homeostasis can be assessed using an assay to monitor glucose production by cultured cells such as rat hepatocytes. […] Following 24 h incubation, conditioned medium from each well was transferred to a fresh 96-well plate. Glucose concentrations in the medium were determined using a Glucose Assay kit (Abcam; Cambridge, Mass.) according to the manufacturer's instructions; absorbance measured using a Cytation 3 plate reader at 570 nm (BioTek, Winooski, Vt.). […] Untreated cells were used as reference for maximal glucose production. […] Insulin at 800 μM was used as a modest inhibitor glucose production. […] Data are presented as averages values from 2-4 independent experiments with each data point performed in triplicate.

[3] = tested on: C2C12 cells; experiment: Glucose utilization in cultured C2C12 cells and insulin dependence; format: cell-based, mouse; conditions: for Glucose Utilization, Percent of Control Activity No Insulin: peptide 10 μM alone, glucose in medium relative to untreated cells; for Glucose Utilization, Percent of Control Activity No Insulin / Glucose Utilization, Percent of Control Activity With Insulin: 22 h; for Glucose Utilization, Percent of Control Activity With Insulin: peptide 10 μM with 5-20 nM insulin, glucose in medium relative to insulin treated cells
Excerpt: The effect of the peptides on glucose homeostasis can be assessed using an assay to monitor glucose utilization by cultured cells such as mouse myotubes. […] C2C12 mouse muscle cell line was purchased from Millipore Sigma (Saint Louis, Mo.). […] Three days after plating the medium was removed and with Differentiation Medium (DMEM/low glucose (1 g/L)+2% Horse Serum+antibiotics) added. […] After 5 days of differentiation, the medium was removed from myotube cultures and replaced with Assay Medium (DMEM/low glucose (1 g/L)+antibiotics). […] Following the 5 h incubation the medium was removed and fresh Assay Medium containing compounds added; 10 μM peptide in absence or presence of 5-20 nM insulin, or 1 mM metformin as a potent stimulator of glucose utilization. […] Following 22 h incubation, conditioned medium from each well was transferred to a fresh 96-well plate. Glucose concentrations in the medium were determined using a Glucose Assay kit (Abcam; Cambridge, Mass.) according to the manufacturer's instructions; absorbance measured using a Cytation 3 plate reader at 570 nm (BioTek, Winooski, Vt.). Absorbance values were expressed as percent control activity relative to untreated treated cells (no insulin) for 10 μM peptide alone or 5-20 nM insulin treated cells (with insulin) for 10 μM peptide in presence of 5-20 nM insulin. Untreated cells were used as reference for basal glucose utilization. The relative standard deviation from plate to plate of untreated control was <10%. Metformin at 1 mM was used as a potent control for increasing glucose utilization. Glucose levels for metformin (1 mM) treatment were <10% of the untreated control value. Data are presented as averages values from 2-3 independent experiments with each data point performed in triplicate.

Compound	Free Fatty Acid Levels, Percent of Isoproterenol Control Activity No Insulin [1] [%]	Free Fatty Acid Levels, Percent of Isoproterenol Control Activity With Insulin [1] [%]	Glucose Production, Percent of Control Activity No Insulin [2] [%]	Glucose Production, Percent of Control Activity With Insulin [2] [%]	Glucose Utilization, Percent of Control Activity No Insulin [3] [%]	Glucose Utilization, Percent of Control Activity With Insulin [3] [%]	Glucose levels, % of untreated control value ([3]; metformin 1 mM, positive control) [%]
34 (RXMMGMVFQSLCGA; (2)..(2) Xaa is Aib (alpha-aminoisobutyric acid); (14)..(14) D-Ala) [compound 34]	104	122	96.9				
24 (RRMVYQCLEG[dA]) [compound 24]	108	59.2	107.6	61.9	98.8	85.8	
CC[C@H](C)[C@H](NC(=O)CNC(=O)[C@@H](NC(=O)[C@@H](NC(=O)[C@H](CCCNC(=N)N)NC(=O)[C@@H](N)CCCNC(=N)N)[C@@H](C)CC)[C@@H](C)CC)C(=O)N[C@H](C(=O)N[C@@H](Cc1ccccc1)C(=O)N[C@@H](CCC(N)=O)C(=O)N[C@@H](CO)C(=O)N[C@@H](CC(C)C)C(=O)N[C@@H](CS)C(=O)NCC(=O)N[C@H](C)C(=O)O)C(C)C [compound 43]	103	91	115.8				
52 (RMMGMVFQS) [compound 52]	102	79	108.4				
20 (KRRMMGMVFQCLCGA; (1)..(1) PEG12; (15)..(15) d-Ala) [compound 20]	101	90.7	98.4	108.6	108	91	
40 (RRLLGLVEQSLCG[dA]) [compound 40]	101	76	109.6				
22 (RRMVYQCLCG[dA]; cysteine pairing not given here) [compound 22]	107	61.9	109.8	49.1	100.9	79.8	
38 (RRMMGMVEQSLCG[dA]) [compound 38]	101	68	98.5				
48 (MMGMVFQSL) [compound 48]	92	93	110.0				
55 (RRMMGM) [compound 55]	100	90	92.6				
49 (MMGMVFQSLCG[dA]) [compound 49]	101	103	120.1				
63 (Ac-RRMMGMVFQSLCG[dA]-NH2) [compound 63]	112	92	107.5				
62 (RRMMGMVFQSLCG[dA]-NH2) [compound 62]	112	109	105.6				
61 (Ac-RRMMGMVFQSLCG[dA]) [compound 61]	112	143	122.7				
54 (RMMGMVFQSLCG[dA]) [compound 54]	102	75	112.8				
45 (MMGMVF) [compound 45]	105	89	106.9				

Compound	Free Fatty Acid Levels, Percent of Isoproterenol Control Activity No Insulin [1] [%]	Free Fatty Acid Levels, Percent of Isoproterenol Control Activity With Insulin [1] [%]	Glucose Production, Percent of Control Activity No Insulin [2] [%]	Glucose Production, Percent of Control Activity With Insulin [2] [%]	Glucose Utilization, Percent of Control Activity No Insulin [3] [%]	Glucose Utilization, Percent of Control Activity With Insulin [3] [%]	Glucose levels, % of untreated control value ([3]; metformin 1 mM, positive control) [%]
44 (MMGMV) [compound 44]	103	96	98.8				
CN(C)C(=N)N=C(N)N [metformin, reference compound]							< 10
53 (RMMGMVFQSL) [compound 53]	101	81	91.9				
58 (RRMMGMVFQ) [compound 58]	110	114	114.5				
57 (RRMMGMVF) [compound 57]	96	87	98.3				
35 (RXLLGLVFQSLCGA; (2)..(2) Xaa is Aib (alpha-aminoisobutyric acid); (14)..(14) D-Ala) [compound 35]	101	112	98.1				
33 (RRLLGLVFQSLCG[dA]) [compound 33]	98	80	113.8				
39 (RRMMGMVFQSLEG[dA]) [compound 39]	97	67	103.9				
47 (MMGMVFQS) [compound 47]	101	93	108.0				
50 (RMMGMVF) [compound 50]	103	101	99.8				
60 (RRMMGMVFQSL) [compound 60]	110	101	115.9				
56 (RRMMGMV) [compound 56]	99	94	97.1				
46 (MMGMVFQ) [compound 46]	98	104	105.0				
51 (RMMGMVFQ) [compound 51]	99	79	106.1				
59 (RRMMGMVFQS) [compound 59]	111	114	114.0				
41 (RRLLGLVFQSLEG[dA]) [compound 41]	97	73	122.7				
